Biological target: T1, Cytochrome P450 1A2 (Homo sapiens, UniProt P05177)
T1 sequence (P05177 whole entry): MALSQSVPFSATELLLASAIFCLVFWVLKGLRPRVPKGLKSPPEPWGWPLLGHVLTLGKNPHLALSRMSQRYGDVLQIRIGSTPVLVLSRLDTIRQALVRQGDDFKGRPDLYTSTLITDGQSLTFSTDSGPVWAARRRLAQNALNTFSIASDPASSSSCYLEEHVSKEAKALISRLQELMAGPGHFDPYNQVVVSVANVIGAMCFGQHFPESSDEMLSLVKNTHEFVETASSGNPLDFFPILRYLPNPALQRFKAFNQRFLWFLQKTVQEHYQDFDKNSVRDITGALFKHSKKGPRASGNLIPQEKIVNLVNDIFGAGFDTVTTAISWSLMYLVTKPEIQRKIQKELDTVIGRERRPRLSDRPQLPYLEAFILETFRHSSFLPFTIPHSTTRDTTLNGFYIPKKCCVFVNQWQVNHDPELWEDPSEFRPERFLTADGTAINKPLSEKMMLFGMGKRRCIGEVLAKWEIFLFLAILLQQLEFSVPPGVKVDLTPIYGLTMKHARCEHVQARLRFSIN
Assay: Inhibition of recombinant human CYP1A2 using luciferin-ME as substrate preincubated for 10 mins followed by NADPH addition and measured after 10 to 30 mins by P450-Glo assay

IC50 [nM]	SMILES
4200	CN(C)c1ccc(-c2ncc3ccccc3n2)cc1
1200	O=[N+]([O-])c1cccc(-c2ncc3ccccc3n2)c1
960	c1ccc2nc(-c3ccnc4ccccc34)ncc2c1
